Assay results: patent US7494821B2, “Fluorescein based sensors for tracking nitric oxide in live cells” (Massachusetts Institute of Technology, priority 2005, dated 2009)

Key:
[1] = Fluorescence response to NO in buffered aqueous solution; conditions: for fluorescence on reaction with NO-releasing agent SNAP: pH 7.0 (50 mM PIPES, 100 mM KCl), 30 min time interval
Method: FIG. 5 depicts the fluorescence response of Cu(FL5) to NO. Fluorescence emission spectra (λex=503 nm) of a deoxygenated 1 μM solution of Cu(FL5) in buffered solution (50 mM PIPES, pH 7.0, 100 mM KCl) before (dashed line), immediately, 1, 2 and 5 min after (solid lines) admission of 1300 equiv of NO (g) at 37° C.
The fluorescence of a 1 μM FL5 solution was diminished by 18±3% upon introduction of an equimolar quantity of CuCl2 at 37° C. Addition of excess NO to a buffered aqueous Cu(FL5) solution led to an immediate 11.2±1.5-fold increase in fluorescence (FIG. 5). […] The lower detection limit for NO is 5 nM.
A commercially available NO probe, DAF-2 (o-diaminofluorescein), was used for comparison with Cu(FL5). The fluorescence of DAF-2 is unchanged in the presence of NO and the absence of O2 over a period of 1 h.
As depicted in FIG. 4, NO detection by Cu(FL5) occurs, formally, by nitric oxide-induced reduction of Cu(II) to Cu(I), forming NO^+, which nitrosates the ligand with concomitant dissociation from copper and fluorescence turn-on. The mechanism of turn-on emission of Cu(FL5) by NO was investigated by EPR, UV-vis, NMR and fluorescence spectroscopy and by liquid chromatography-mass spectrometry (LC-MS, low resolution MS).

[2] = test system: SK-N-SH human neuroblastoma cells; experiment: Detection of NO produced by cNOS in SK-N-SH cells (fluorescence imaging); assay type: cell-based
Method: FIG. 7 illustrates Cu(FL5) detection of NO produced by cNOS. (a) NO detection in SK-N-SH cells by Cu(FL5). Left to right: 25 min incubation of Cu(FL5) (1 μM) and 5, 10, 15, 25 min after co-treatment of Cu(FL5) (1 μM) and 17β-estradiol (100 nM). Images were taken with a Nikon Eclipse TS100 microscope after removing the DMEM media and washing the cells with PBS. Top: fluorescence images; bottom: phase contrast images. (b) Fluorescence intensity (F(t)/FCu(FL5)) from a was plotted against incubation time. (c) NO production with or without of L-NNA. Right: NO detection in cells after 10 min co-incubation of Cu(FL5) (1 μM) and 17β-estradiol (100 nM). Left: NO detection in cells pre-treated with L-NNA for 1 h before addition of Cu(FL5) and 17β-estradiol.
We investigated the ability of Cu(FL5) to detect NO produced in SK-N-SH human neuroblastoma cells under physiological conditions, since constitutive NO synthase (“cNOS”) in this cell line can be activated by estrogen to produce NO. Estrogen administration leads to an increase in the cytosolic Ca(II) concentration that alters the structure of calmodulin, which in turn activates cNOS. The NO-dependent fluorescence response, monitored after simultaneous administration of 17β-estradiol (100 nM) and Cu(FL5) (1 μM) to the cells, was completed within 5 min with a 4.0±0.6-fold increase in fluorescence (FIGS. 5a and b). […] As another control, HeLa cells were co-treated with 17β-estradiol (100 nM) and Cu(FL5) (1 μM).
Raw 264.7, SK-N-SH, and HeLa cells were purchased from the American Type Culture Collection (ATCC). All three cell lines were maintained in Dulbecco's modified Eagles' media (DMEM) (GibcoBRL) containing 10% (v/v) heat-inactivated fetal bovine serum (FBS) (HyClone), 1 mM sodium pyruvate (Sigma), 100 units/ml penicillin, 100 μg/ml streptomycin (Invitrogen), and 0.1 mM nonessential amino acid solution for minimal essential medium (Sigma). All cells were grown at 37° C. in a humidified atmosphere of 10% CO2. A nitrite assay was performed with Griess reagents (Promega) on Raw 264.7 cells grown in DMEM free of phenol red. Calcium sensor fluo-4 AM was purchased from Invitrogen. MTT [3-(4,5-dimethylthiazol-2-yl)-2,5-diphenyltetrazolium bromide] (Sigma-Aldrich) assay was described in Supplementary information. The expression of iNOS in Raw 264.7 cells was analyzed by Western blot on the extracts of cells stimulated by LPS and INF-γ. The protein was silenced by short hairpin RNA-induced RNAi and the resulting cell lines were used in fluorescence imaging by Cu(FL5).

[3] = test system: Raw 264.7 murine macrophage cells; experiment: Detection of NO produced by iNOS in Raw 264.7 cells (fluorescence imaging); assay type: cell-based
Method: FIG. 8 illustrates Cu(FL5) detection of NO produced by iNOS. (a) NO detection in Raw 264.7 macrophage cells by Cu(FL5). Left to right: Cu(FL5) (1 μM) incubation with cells for 12 h, and 2, 4, 6, 8 h after addition of Cu(FL5) into cells that were pre-stimulated for 4 h with LPS (500 ng mL^−1) and IFN-γ (250 U mL^−1). The times depicted in the figure are the total incubation times with Cu(FL5). Images were taken immediately after removing the media and washing the cells three times with PBS. The instrument used was a Zeiss Axiovert 200M inverted epifluorescence microscope with differential interference contrast (DIC). Top: fluorescence images; bottom: DIC images. (b) Silencing of iNOS by RNAi in Raw 264.7 cells. A plasmid expressing shRNA was constructed to target the mRNA of iNOS. It was transfected into cells. The plasmid vector without insert for RNAi was transfected to establish a control cell line. The expression of iNOS in these two cell lines after stimulated by LPS and IFN-γ for 12 h was investigated by Western blot on the whole cell extracts with antibodies against the protein and actin, which served as loading control (lane 1: cells with control plasmid vector, lane 2: cells with plasmid expressing shRNA for iNOS). (c) NO detection in Raw 264.7 cells with iNOS silenced by RNAi. The two lines in (b) were treated with LPS and IFN-γ for 4 h before 8 h of incubation with Cu(FL5).
In macrophages, nitric oxide is produced by inducible NO synthases (“iNOS”). […] This method colorimetrically determines the concentration of NO2^− resulting from NO oxidation in the extracellular space. Fluorescence detection of NO production by stimulated macrophage cells was also achieved by incubation of the extracellular fluid with DAN and DAFs. These dyes improved the sensitivity of Griess assay, but were unable to reveal NO production inside cells with spatial and temporal fidelity. The present Cu(FL5) construct, however, readily detects NO produced in activated Raw 264.7 cells by fluorescence turn-on. Macrophage cells were incubated with LPS (500 ng/mL) and IFN-γ (250 U/mL) for 4 h, after which 1 μM Cu(FL5) was applied. The fluorescence response was monitored at 2 h intervals by microscopy (FIG. 6a).
To investigate further the origin of fluorescence detected by Cu(FL5), iNOS was silenced in Raw 264.7 cells by short hairpin RNA (shRNA)-induced RNA interference (RNAi) (FIG. 6b).
Raw 264.7, SK-N-SH, and HeLa cells were purchased from the American Type Culture Collection (ATCC). […] The expression of iNOS in Raw 264.7 cells was analyzed by Western blot on the extracts of cells stimulated by LPS and INF-γ. The protein was silenced by short hairpin RNA-induced RNAi and the resulting cell lines were used in fluorescence imaging by Cu(FL5).

SMILES: Cc1ccc2cccc(NCc3c(O)ccc4c(-c5ccccc5C(=O)O)c5cc(Cl)c(=O)cc-5oc34)c2n1 [FL5, 2-{2-chloro-6-hydroxy-5-[(2-methyl-quinolin-8-ylamino)-methyl]-3-oxo-3H-xanthen-9-yl}-benzoic acid]
- increase in fluorescence when treated with excess NO over 30 min ([1]; control: no Cu(II), over 30 min): 1.5±0.2 fold
- fluorescence in stimulated SK-N-SH cells in the absence of Cu(II) ion ([2]; over a period of 25 min): no fluorescence increase
- turn-on fluorescence emission in stimulated Raw 264.7 cells without Cu(II) ion ([3]; LPS and IFN-γ, 12 h incubation period): not observed

SMILES: Cc1ccc2cccc(NCc3c([O][Cu][Cl])ccc4c(-c5ccccc5C(=O)O)c5cc(Cl)c(=O)cc-5oc34)c2n1 [Cu(FL5)]
- fluorescence response to NO under both anaerobic and aerobic conditions [1]: immediate fluorescence response
- lower detection limit for NO [1]: 5 nM
- increase in fluorescence upon addition of excess NO ([1]; buffered aqueous solution, immediate): 11.2±1.5 fold
- increase in fluorescence upon addition of NO in the presence of excess EDTA ([1]; excess EDTA chelating Cu(II)): 1.3±0.2 fold
- fluorescence on reaction with NO-releasing agent SNAP [1]: enhanced
- fluorescence on reaction with NO-releasing agent SNAP ([1]; listed as Cu(II)(FL5)): turn-on fluorescence
- increase in fluorescence in SK-N-SH cells ([2]; 17β-estradiol (100 nM) and Cu(FL5) (1 μM) administered simultaneously): 4.0±0.6 fold
- time to complete fluorescence response in SK-N-SH cells ([2]; 17β-estradiol (100 nM), probe 1 μM): ≤ 5 min
- fluorescence response in presence of cNOS inhibitor L-NNA ([2]; 17β-estradiol-stimulated SK-N-SH cells): notably weaker fluorescence response
- fluorescence enhancement in living cells, both cNOS and iNOS ([2]; both cell lines (Raw 264.7 and SK-N-SH)): > 4 fold
- brightness of NO visualization compared with DAF-2 DA ([2]; estradiol-stimulated neuroblastoma cells): brighter fluorescence than DAF-2 DA
- average fluorescence in activated Raw 264.7 cells ([3]; LPS (500 ng/mL) and IFN-γ (250 U/mL) 4 h, then 1 μM Cu(FL5), monitored at 2 h intervals): slowly increased over 12 h
- fluorescence response in Raw 264.7 cells with iNOS silenced by shRNA vs plasmid vector only ([3]; stimulated by LPS and IFN-γ): much weaker fluorescence response
- fluorescence response in stimulated Raw 264.7 cells in presence of iNOS inhibitor L-NMA ([3]; vs absence of L-NMA): notably weaker fluorescence response
